Assay results: publication PMC7403827 (Clinical and Translational Medicine, 2020)

Test: Adverse events (CTCAE 4.0) under apatinib plus gefitinib
Format: in vivo, human
[1] = Apatinib 500 mg Cohort (n = 6), with gefitinib 250 mg, treatment‐related AE, patients (%)

N#CC1(c2ccc(NC(=O)c3cccnc3NCc3ccncc3)cc2)CCCC1 [Apatinib]
Abdominal distention, ALL [1]: 0
Abdominal distention, Grade 1–2 [1]: 0
Abdominal distention, Grade 3–4 [1]: 0
Blurred vision, ALL [1]: 1 (16.7%)
Blurred vision, Grade 1–2 [1]: 1 (16.7%)
Blurred vision, Grade 3–4 [1]: 0
Cough, ALL [1]: 1 (16.7%)
Cough, Grade 1–2 [1]: 1 (16.7%)
Cough, Grade 3–4 [1]: 0
Diarrhea, ALL [1]: 4 (66.7%)
Diarrhea, Grade 1–2 [1]: 3 (50.0%)
Diarrhea, Grade 3–4 [1]: 1 (16.7%)
Dizziness, ALL [1]: 1 (16.7%)
Dizziness, Grade 1–2 [1]: 1 (16.7%)
Dizziness, Grade 3–4 [1]: 0
Dry skin, ALL [1]: 1 (16.7%)
Dry skin, Grade 1–2 [1]: 1 (16.7%)
Dry skin, Grade 3–4 [1]: 0
Dysgeusia, ALL [1]: 0
Dysgeusia, Grade 1–2 [1]: 0
Dysgeusia, Grade 3–4 [1]: 0
Eczema, ALL [1]: 0
Eczema, Grade 1–2 [1]: 0
Eczema, Grade 3–4 [1]: 0
Elevated ALT, ALL [1]: 5 (83.3%)
Elevated ALT, Grade 1–2 [1]: 4 (66.7%)
Elevated ALT, Grade 3–4 [1]: 1 (16.7%)
Elevated AST, ALL [1]: 3 (50.0%)
Elevated AST, Grade 1–2 [1]: 3 (50%)
Elevated AST, Grade 3–4 [1]: 0
Epistaxis, ALL [1]: 1 (16.7%)
Epistaxis, Grade 1–2 [1]: 1 (16.7%)
Epistaxis, Grade 3–4 [1]: 0
Fatigue, ALL [1]: 1 (16.7%)
Fatigue, Grade 1–2 [1]: 1 (16.7%)
Fatigue, Grade 3–4 [1]: 0
Gastrointestinal bleeding, ALL [1]: 0
Gastrointestinal bleeding, Grade 1–2 [1]: 0
Gastrointestinal bleeding, Grade 3–4 [1]: 0
HFSR, ALL [1]: 2 (33.3%)
HFSR, Grade 1–2 [1]: 2 (33.3%)
HFSR, Grade 3–4 [1]: 0
Haematuria, ALL [1]: 0
Haematuria, Grade 1–2 [1]: 0
Haematuria, Grade 3–4 [1]: 0
Headache, ALL [1]: 0
Headache, Grade 1–2 [1]: 0
Headache, Grade 3–4 [1]: 0
Hematochezia, ALL [1]: 0
Hematochezia, Grade 1–2 [1]: 0
Hematochezia, Grade 3–4 [1]: 0
Hypertension, ALL [1]: 4 (66.7%)
Hypertension, Grade 1–2 [1]: 3 (50.0%)
Hypertension, Grade 3–4 [1]: 1 (16.7%)
Increased bilirubin, ALL [1]: 1 (16.7%)
Increased bilirubin, Grade 1–2 [1]: 1 (16.7%)
Increased bilirubin, Grade 3–4 [1]: 0
Increased creatinine, ALL [1]: 1 (16.7%)
Increased creatinine, Grade 1–2 [1]: 1 (16.7%)
Increased creatinine, Grade 3–4 [1]: 0
Leukopenia, ALL [1]: 1 (16.7%)
Leukopenia, Grade 1–2 [1]: 1 (16.7%)
Leukopenia, Grade 3–4 [1]: 0
Nausea, ALL [1]: 3 (50.0%)
Nausea, Grade 1–2 [1]: 3 (50.0%)
Nausea, Grade 3–4 [1]: 0
Neutropenia, ALL [1]: 1 (16.7%)
Neutropenia, Grade 1–2 [1]: 1 (16.7%)
Neutropenia, Grade 3–4 [1]: 0
Oulorrhagia, ALL [1]: 0
Oulorrhagia, Grade 1–2 [1]: 0
Oulorrhagia, Grade 3–4 [1]: 0
Paronychia, ALL [1]: 0
Paronychia, Grade 1–2 [1]: 0
Paronychia, Grade 3–4 [1]: 0
Periodontitis, ALL [1]: 0
Periodontitis, Grade 1–2 [1]: 0
Periodontitis, Grade 3–4 [1]: 0
Pharyngalgia, ALL [1]: 0
Pharyngalgia, Grade 1–2 [1]: 0
Pharyngalgia, Grade 3–4 [1]: 0
Pneumonia (non‐interstitial), ALL [1]: 0
Pneumonia (non‐interstitial), Grade 1–2 [1]: 0
Pneumonia (non‐interstitial), Grade 3–4 [1]: 0
Proteinuria, ALL [1]: 4 (66.7%)
Proteinuria, Grade 1–2 [1]: 2 (33.3%)
Proteinuria, Grade 3–4 [1]: 2 (33.3%)
Pruritus, ALL [1]: 1 (16.7%)
Pruritus, Grade 1–2 [1]: 1 (16.7%)
Pruritus, Grade 3–4 [1]: 0
Rash, ALL [1]: 6 (100%)
Rash, Grade 1–2 [1]: 6 (100%)
Rash, Grade 3–4 [1]: 0
Stomatitis, ALL [1]: 0
Stomatitis, Grade 1–2 [1]: 0
Stomatitis, Grade 3–4 [1]: 0
Thrombocytopenia, ALL [1]: 2 (33.3%)
Thrombocytopenia, Grade 1–2 [1]: 2 (33.3%)
Thrombocytopenia, Grade 3–4 [1]: 0
Trachyphonia, ALL [1]: 1 (16.7%)
Trachyphonia, Grade 1–2 [1]: 1 (16.7%)
Trachyphonia, Grade 3–4 [1]: 0
Vomiting, ALL [1]: 2 (33.3%)
Vomiting, Grade 1–2 [1]: 2 (33.3%)
Vomiting, Grade 3–4 [1]: 0
Serious Adverse Event (Patient 007, Apatinib Dose 500 mg, Discontinuation, Correlation with Apatinib Yes, Remission): Hypertension
